Source: ChEMBL document CHEMBL4402510, “Caprazamycins: Promising lead structures acting on a novel antibacterial target MraY” (Eur J Med Chem, 2019)
In brackets after ≈: the same amount, converted by molar mass.

Key:
Mycolicibacterium phlei = test: Antibacterial activity against Mycobacterium phlei; format: functional
[1] = tested on: Mycobacterium tuberculosis; test: Antibacterial activity against Mycobacterium tuberculosis H37Rv; format: functional
[2] = Antibacterial activity against Mycobacterium avium subsp. avium ATCC 25291; format: functional
[3] = tested on: Mycobacterium avium subsp. paratuberculosis; test: Antibacterial activity against Mycobacterium avium subsp. paratuberculosis ATCC 43015; format: functional
Staphylococcus aureus [4] = test: Antibacterial activity against methicillin resistant Staphylococcus aureus No. 5; format: functional
[5] = tested on: Mycobacterium tuberculosis; test: Antibacterial activity against Mycobacterium tuberculosis Kurono; format: functional
[6] = tested on: Mycobacterium tuberculosis; test: Antibacterial activity against Mycobacterium tuberculosis JCM 6384; format: functional
[7] = tested on: Mycolicibacterium smegmatis; test: Antibacterial activity against Mycobacterium smegmatis ATCC 607; format: functional
Mycolicibacterium vaccae = test: Antibacterial activity against Mycobacterium vaccae ATCC 15483; format: functional
Staphylococcus aureus [8] = test: Antibacterial activity against Staphylococcus aureus FDA 209P; format: functional
Staphylococcus aureus [9] = test: Antibacterial activity against methicillin resistant Staphylococcus aureus MS16526; format: functional
Bacillus subtilis = test: Antibacterial activity against Bacillus subtilis PCI 219; format: functional
Escherichia coli [10] = test: Antibacterial activity against Escherichia coli K-12; format: functional
Escherichia coli [11] = test: Antibacterial activity against Escherichia coli expressing MraY; format: functional, organism-based

SMILES | MIC (Mycolicibacterium phlei) | MIC [1] | MIC [2] | MIC [3] | MIC (Staphylococcus aureus [4]) | MIC [5] | MIC [6] | MIC [7] | MIC (Mycolicibacterium vaccae) | MIC (Staphylococcus aureus [8]) | MIC (Staphylococcus aureus [9]) | MIC (Bacillus subtilis) | MIC (Escherichia coli [10]) | IC50 (Escherichia coli [11])
CCCCCCc1ccc(NC(=O)C2=CCN(C)[C@@H]([C@H](O[C@@H]3O[C@H](CN)[C@@H](O)[C@H]3O)[C@H]3O[C@@H](n4ccc(=O)[nH]c4=O)[C@H](O)[C@@H]3O)C(=O)N2C)cc1 | 0.39 µg/mL (≈ 0.544 µM) | 0.78 µg/mL (≈ 1.09 µM) | 0.2 µg/mL (≈ 0.279 µM) | 0.78 µg/mL (≈ 1.09 µM) | 12.5 µg/mL (≈ 17.4 µM) | 0.78 µg/mL (≈ 1.09 µM) | 6.25 µg/mL (≈ 8.72 µM) | 1.56 µg/mL (≈ 2.18 µM) | 12.5 µg/mL (≈ 17.4 µM) | > 100 µg/mL |  |  |  | 
CCCCCCCCCCCCCCCCCCCCNC(=O)C1=CCN(C)[C@@H]([C@H](O[C@@H]2O[C@H](CN)[C@@H](O)[C@H]2O)[C@H]2O[C@@H](n3ccc(=O)[nH]c3=O)[C@H](O)[C@@H]2O)C(=O)N1C | 1.56 µg/mL (≈ 1.86 µM) | 1.56 µg/mL (≈ 1.86 µM) | 25 µg/mL (≈ 29.9 µM) | 50 µg/mL (≈ 59.7 µM) | > 100 µg/mL | 1.56 µg/mL (≈ 1.86 µM) | > 100 µg/mL | 6.25 µg/mL (≈ 7.47 µM) | 12.5 µg/mL (≈ 14.9 µM) | > 100 µg/mL |  |  |  | 
CCCCCCCCCCCCCCc1ccc(NC(=O)C2=CCN(C)[C@@H]([C@H](O[C@@H]3O[C@H](CN)[C@@H](O)[C@H]3O)[C@H]3O[C@@H](n4ccc(=O)[nH]c4=O)[C@H](O)[C@@H]3O)C(=O)N2C)cc1 | 3.13 µg/mL (≈ 3.78 µM) | 3.13 µg/mL (≈ 3.78 µM) | 6.25 µg/mL (≈ 7.54 µM) | 0.39 µg/mL (≈ 0.47 µM) | 12.5 µg/mL (≈ 15.1 µM) | 3.13 µg/mL (≈ 3.78 µM) | 0.78 µg/mL (≈ 0.941 µM) | 6.25 µg/mL (≈ 7.54 µM) | 6.25 µg/mL (≈ 7.54 µM) | 12.5 µg/mL (≈ 15.1 µM) | 0.39 µg/mL (≈ 0.47 µM) | > 100 µg/mL | > 100 µg/mL | 
CCCNC[C@H]1O[C@@H](OC[C@H]2O[C@@H](n3ccc(=O)[nH]c3=O)[C@H](O)[C@@H]2O)[C@H](O)[C@@H]1O |  |  |  |  |  |  |  |  |  |  |  |  |  | 140 µM
NC[C@H]1O[C@@H](OC[C@@H]2C[C@@H](O)[C@H](n3ccc(=O)[nH]c3=O)O2)[C@H](O)[C@@H]1O |  |  |  |  |  |  |  |  |  |  |  |  |  | 10 µM
CC/C=C/CCCCCCCCCCOC(=O)C1=CCN(C)[C@@H]([C@H](O[C@@H]2O[C@H](CN)[C@@H](O)[C@H]2O)[C@H]2O[C@@H](n3ccc(=O)[nH]c3=O)[C@H](O)[C@@H]2O)C(=O)N1C | 12.5 µg/mL (≈ 16.6 µM) | 12.5 µg/mL (≈ 16.6 µM) | 25 µg/mL (≈ 33.3 µM) | 6.25 µg/mL (≈ 8.31 µM) | > 100 µg/mL | 6.25 µg/mL (≈ 8.31 µM) | 12.5 µg/mL (≈ 16.6 µM) | 6.25 µg/mL (≈ 8.31 µM) | 25 µg/mL (≈ 33.3 µM) | 0.78 µg/mL (≈ 1.04 µM) | 25 µg/mL (≈ 33.3 µM) |  |  | 
CCCCCCCCCCCCCCCCCCCCCNC(=O)C1=CCN(C)[C@@H]([C@H](O[C@@H]2O[C@H](CN)[C@@H](O)[C@H]2O)[C@H]2O[C@@H](n3ccc(=O)[nH]c3=O)[C@H](O)[C@@H]2O)C(=O)N1C | 12.5 µg/mL (≈ 14.7 µM) | 1.56 µg/mL (≈ 1.83 µM) | 50 µg/mL (≈ 58.7 µM) | > 100 µg/mL | > 100 µg/mL | 0.78 µg/mL (≈ 0.916 µM) | > 100 µg/mL | 6.25 µg/mL (≈ 7.34 µM) | 12.5 µg/mL (≈ 14.7 µM) | 1.56 µg/mL (≈ 1.83 µM) | > 100 µg/mL |  |  | 
O=c1ccn([C@@H]2O[C@H](CO[C@@H]3O[C@H](CO)[C@@H](O)[C@H]3O)[C@@H](O)[C@H]2O)c(=O)[nH]1 |  |  |  |  |  |  |  |  |  |  |  |  |  | > 1000 µM
C[N+](C)(C)C[C@H]1O[C@@H](OC[C@H]2O[C@@H](n3ccc(=O)[nH]c3=O)[C@H](O)[C@@H]2O)[C@H](O)[C@@H]1O |  |  |  |  |  |  |  |  |  |  |  |  |  | > 1000 µM
CCc1ccc(NC(=O)C2=CCN(C)[C@@H]([C@H](O[C@@H]3O[C@H](CN)[C@@H](O)[C@H]3O)[C@H]3O[C@@H](n4ccc(=O)[nH]c4=O)[C@H](O)[C@@H]3O)C(=O)N2C)cc1 | 12.5 µg/mL (≈ 18.9 µM) | 6.25 µg/mL (≈ 9.46 µM) | 100 µg/mL (≈ 151 µM) | > 100 µg/mL | > 100 µg/mL | 3.13 µg/mL (≈ 4.74 µM) | > 100 µg/mL | > 100 µg/mL | > 100 µg/mL | > 100 µg/mL |  |  |  | 
CCCCCCCCCCCCCOC(=O)C1=CCN(C)[C@@H]([C@H](O[C@@H]2O[C@H](CN)[C@@H](O)[C@H]2O)[C@H]2O[C@@H](n3ccc(=O)[nH]c3=O)[C@H](O)[C@@H]2O)C(=O)N1C | 25 µg/mL (≈ 33.8 µM) | 6.25 µg/mL (≈ 8.45 µM) | 3.13 µg/mL (≈ 4.23 µM) | 12.5 µg/mL (≈ 16.9 µM) | 0.78 µg/mL (≈ 1.05 µM) | 50 µg/mL (≈ 67.6 µM) | 12.5 µg/mL (≈ 16.9 µM) | 6.25 µg/mL (≈ 8.45 µM) | 3.13 µg/mL (≈ 4.23 µM) | 12.5 µg/mL (≈ 16.9 µM) | > 100 µg/mL | 25 µg/mL (≈ 33.8 µM) |  | 
CCCCCCCCCCOC(=O)C1=CCN(C)[C@@H]([C@H](O[C@@H]2O[C@H](CN)[C@@H](O)[C@H]2O)[C@H]2O[C@@H](n3ccc(=O)[nH]c3=O)[C@H](O)[C@@H]2O)C(=O)N1C | > 100 µg/mL | 12.5 µg/mL (≈ 17.9 µM) | 12.5 µg/mL (≈ 17.9 µM) | 12.5 µg/mL (≈ 17.9 µM) |  | 12.5 µg/mL (≈ 17.9 µM) | 50 µg/mL (≈ 71.7 µM) | 50 µg/mL (≈ 71.7 µM) | 0.78 µg/mL (≈ 1.12 µM) | > 100 µg/mL |  |  |  | 
CCCCOc1ccc(NC(=O)C2=CCN(C)[C@@H]([C@H](O[C@@H]3O[C@H](CN)[C@@H](O)[C@H]3O)[C@H]3O[C@@H](n4ccc(=O)[nH]c4=O)[C@H](O)[C@@H]3O)C(=O)N2C)cc1 | > 100 µg/mL | 1.56 µg/mL (≈ 2.21 µM) | 3.13 µg/mL (≈ 4.44 µM) | 0.78 µg/mL (≈ 1.11 µM) | > 100 µg/mL | 3.13 µg/mL (≈ 4.44 µM) | 0.78 µg/mL (≈ 1.11 µM) | 25 µg/mL (≈ 35.5 µM) | 100 µg/mL (≈ 142 µM) | > 100 µg/mL | 3.13 µg/mL (≈ 4.44 µM) | > 100 µg/mL | > 100 µg/mL | 
NC[C@@H]1C[C@@H](O)[C@H](OC[C@H]2O[C@@H](n3ccc(=O)[nH]c3=O)[C@H](O)[C@@H]2O)O1 |  |  |  |  |  |  |  |  |  |  |  |  |  | > 1000 µM
CCCCCCCC/C=C/CCCCCCCCNC(=O)C1=CCN(C)[C@@H]([C@H](O[C@@H]2O[C@H](CN)[C@@H](O)[C@H]2O)[C@H]2O[C@@H](n3ccc(=O)[nH]c3=O)[C@H](O)[C@@H]2O)C(=O)N1C | 1.56 µg/mL (≈ 1.93 µM) | 3.13 µg/mL (≈ 3.88 µM) | 6.25 µg/mL (≈ 7.74 µM) | 0.78 µg/mL (≈ 0.967 µM) | 6.25 µg/mL (≈ 7.74 µM) | 3.13 µg/mL (≈ 3.88 µM) | 1.56 µg/mL (≈ 1.93 µM) | 1.56 µg/mL (≈ 1.93 µM) | 1.56 µg/mL (≈ 1.93 µM) | 6.25 µg/mL (≈ 7.74 µM) | 0.78 µg/mL (≈ 0.967 µM) | > 100 µg/mL | > 100 µg/mL | 
CCCCCCCc1ccc(NC(=O)C2=CCN(C)[C@@H]([C@H](O[C@@H]3O[C@H](CN)[C@@H](O)[C@H]3O)[C@H]3O[C@@H](n4ccc(=O)[nH]c4=O)[C@H](O)[C@@H]3O)C(=O)N2C)cc1 | 25 µg/mL (≈ 34.2 µM) | 0.78 µg/mL (≈ 1.07 µM) | 1.56 µg/mL (≈ 2.13 µM) | 0.05 µg/mL (≈ 0.0684 µM) | < 0.2 µg/mL | 0.78 µg/mL (≈ 1.07 µM) | 0.1 µg/mL (≈ 0.137 µM) | < 0.2 µg/mL | 1.56 µg/mL (≈ 2.13 µM) | 12.5 µg/mL (≈ 17.1 µM) | 50 µg/mL (≈ 68.4 µM) | 6.25 µg/mL (≈ 8.55 µM) |  | 
